Experimental findings from US11382918B2, “Methods for treating Huntington's Disease” (PTC Therapeutics, Inc., priority 2017, dated 2022) are described below.

Molecules are shown by their SMILES.

The test system of the assay is Endogenous Huntingtin Protein (HTT). The assay is described as follows: Endogenous Huntingtin Protein Assay (ELISA-based MSD electrochemiluminescence). Format: cell-based. To be noted: Table 1. A digest of the protocol:
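MSD electrochemiluminescence sandwich ELISA for endogenous HTT: sample lysates captured overnight at 4 °C on MW1 (expanded polyglutamine) or MAB2166 antibody. Detection used rabbit monoclonal #5656S, then goat anti-rabbit SULFO-TAG antibody, each 1 h at room temperature.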
A general note: An ELISA detects its analyte on a solid surface through an enzyme-linked reagent.
For orientation: IC50 means the concentration needed to halve the response being measured. A higher IC50 goes with a need for much substance. For the molecule `Cc1cn2nc(-c3cc(=O)n4cc(N5CCN(CCO)[C@H](C)C5)cc(C)c4n3)cc2c(C)n1` [compound 673, 2-(4,6-dimethylpyrazolo[1,5-a]pyrazin-2-yl)-7-[(3R)-4-(2-hydroxyethyl)-3-methylpiperazin-1-yl]-9-methyl-4H-pyrido[1,2-a]pyrimidin-4-one], the IC50 was in the range of 3000 to 33000 nM.

In turn, `Cc1cn2cc(-c3cc(=O)n4cc(N5CCNCC5)ccc4n3)cc(CO)c2n1` [compound 674, 2-[8-(hydroxymethyl)-2-methylimidazo[1,2-a]pyridin-6-yl]-7-(piperazin-1-yl)-4H-pyrido[1,2-a]pyrimidin-4-one] returned an IC50 of 3000 to 33000 nM.

`Cc1cn2cc(-c3cc(=O)n4cc(N5CCN(C)CC5)ccc4n3)cc(CO)c2n1` [compound 677, 2-[8-(hydroxymethyl)-2-methylimidazo[1,2-a]pyridin-6-yl]-7-(4-methylpiperazin-1-yl)-4H-pyrido[1,2-a]pyrimidin-4-one]: the IC50 lay within 3000 to 33000 nM.

Take `CCc1nc(C)cn2nc(-c3cc(=O)n4cc(C5CCN(C(C)C)CC5)ccc4n3)cc12` [compound 679, 2-(4-ethyl-6-methylpyrazolo[1,5-a]pyrazin-2-yl)-7-[1-(propan-2-yl)piperidin-4-yl]-4H-pyrido[1,2-a]pyrimidin-4-one]: the IC50 lay in the range of 3000 to 33000 nM.

With `Cc1cn2nc(-c3cc(=O)n4cc(N5CCNCC5)ccc4n3)cc2c(C2CC2)n1` [compound 683, 2-(4-cyclopropyl-6-methylpyrazolo[1,5-a]pyrazin-2-yl)-7-(piperazin-1-yl)-4H-pyrido[1,2-a]pyrimidin-4-one], the half-maximal inhibitory concentration (IC50) is 3000 to 33000 nM.

As for `Cc1cn2nc(-c3cc(=O)n4cc(N5CCN(C)CC5)ccc4n3)cc2c(C2CC2)n1` [compound 684, 2-(4-cyclopropyl-6-methylpyrazolo[1,5-a]pyrazin-2-yl)-7-(4-methylpiperazin-1-yl)-4H-pyrido[1,2-a]pyrimidin-4-one], the IC50 was 3000 to 33000 nM.

In turn, `CCN1CCN(c2ccc3nc(-c4cc5c(C6CC6)nc(C)cn5n4)cc(=O)n3c2)CC1` [compound 685, 2-(4-cyclopropyl-6-methylpyrazolo[1,5-a]pyrazin-2-yl)-7-(4-ethylpiperazin-1-yl)-4H-pyrido[1,2-a]pyrimidin-4-one] showed an IC50 of 3000 to 33000 nM.

Turning to `Cc1cn2nc(-c3cc(=O)n4cc(N5CCNCC5)ccc4n3)cc2c(N(C)C)n1` [compound 688, 2-[4-(dimethylamino)-6-methylpyrazolo[1,5-a]pyrazin-2-yl]-7-(piperazin-1-yl)-4H-pyrido[1,2-a]pyrimidin-4-one], the IC50 lay in the range of 3000 to 33000 nM.

Turning to `CCc1cc(-c2cc(=O)n3cc(C4CCNCC4)ccc3n2)cn2cc(C)nc12` [compound 696, 2-(8-ethyl-2-methylimidazo[1,2-a]pyridin-6-yl)-7-(piperidin-4-yl)-4H-pyrido[1,2-a]pyrimidin-4-one], the half-maximal inhibitory concentration (IC50) is under 100 nM.

In turn, `CCN1CCC(c2cc(C)c3nc(-c4cc5c(C)nc(C)cn5n4)cc(=O)n3c2)CC1` [compound 702, 2-(4,6-dimethylpyrazolo[1,5-a]pyrazin-2-yl)-7-(1-ethylpiperidin-4-yl)-9-methyl-4H-pyrido[1,2-a]pyrimidin-4-one] displayed an IC50 of 1000 to 3000 nM.

As to `Cc1cc(C2CCN(C)CC2)cn2c(=O)cc(-c3ccc4nn(C)cc4c3)nc12` [compound 705, 9-methyl-2-(2-methyl-2H-indazol-5-yl)-7-(1-methylpiperidin-4-yl)-4H-pyrido[1,2-a]pyrimidin-4-one], the IC50 lay in the range of 500 to 1000 nM.

As to `Cc1cn2nc(-c3cc(=O)n4cc(N5CCC(C)(N(C)C)CC5)ccc4n3)cc2c(C)n1` [compound 706, 7-[4-(dimethylamino)-4-methylpiperidin-1-yl]-2-(4,6-dimethylpyrazolo[1,5-a]pyrazin-2-yl)-4H-pyrido[1,2-a]pyrimidin-4-one], the IC50 fell in the range of 3000 to 33000 nM.

Molecule `Cc1cn2nc(-c3cc(=O)n4cc(N5CCC(C)(NCCO)CC5)ccc4n3)cc2c(C)n1` [compound 709, 2-(4,6-dimethylpyrazolo[1,5-a]pyrazin-2-yl)-7-{4-[(2-hydroxyethyl)amino]-4-methylpiperidin-1-yl}-4H-pyrido[1,2-a]pyrimidin-4-one] gave an IC50 of 3000 to 33000 nM.

On to `Cc1cc(C2CCN(C3CCC3)CC2)cn2c(=O)cc(-c3ccc4nn(C)cc4c3)nc12` [compound 710, 7-(1-cyclobutylpiperidin-4-yl)-9-methyl-2-(2-methyl-2H-indazol-5-yl)-4H-pyrido[1,2-a]pyrimidin-4-one], for which the IC50 was 100 to 500 nM.

`Cc1cc(C2CCN(CCO)CC2)cn2c(=O)cc(-c3ccc4nn(C)cc4c3)nc12` [compound 711, 7-[1-(2-hydroxyethyl)piperidin-4-yl]-9-methyl-2-(2-methyl-2H-indazol-5-yl)-4H-pyrido[1,2-a]pyrimidin-4-one] came in with an IC50 of 100 to 500 nM.

Take `Cc1cn2cc(-c3cc(=O)n4cc(N5CCN[C@H](C)C5)ccc4n3)cc2c(C)n1` [compound 713, 2-(1,3-dimethylpyrrolo[1,2-a]pyrazin-7-yl)-7-[(3R)-3-methylpiperazin-1-yl]-4H-pyrido[1,2-a]pyrimidin-4-one]: the IC50 lay in the range of 100 to 500 nM.

For `Cc1cn2cc(-c3cc(=O)n4cc(N5CCNCC5)ccc4n3)cc(C3CC3)c2n1` [compound 714, 2-(8-cyclopropyl-2-methylimidazo[1,2-a]pyridin-6-yl)-7-(piperazin-1-yl)-4H-pyrido[1,2-a]pyrimidin-4-one], the IC50 was in the range of 3000 to 33000 nM.

Molecule `Cc1cc(C2CCN(C3CC3)CC2)cn2c(=O)cc(-c3ccc4nn(C)cc4c3)nc12` [compound 718, 7-(1-cyclopropylpiperidin-4-yl)-9-methyl-2-(2-methyl-2H-indazol-5-yl)-4H-pyrido[1,2-a]pyrimidin-4-one] showed an IC50 of 100 to 500 nM.

On to `CCN1CCC(c2cc(C)c3nc(-c4ccc5nn(C)cc5c4)cc(=O)n3c2)CC1` [compound 719, 7-(1-ethylpiperidin-4-yl)-9-methyl-2-(2-methyl-2H-indazol-5-yl)-4H-pyrido[1,2-a]pyrimidin-4-one], for which the IC50 was under 100 nM.

In turn, `Cc1cn2nc(-c3cc(=O)n4cc(N5CCNCC5)cc(C)c4n3)cc2c(C)n1` [compound 720, 2-(4,6-dimethylpyrazolo[1,5-a]pyrazin-2-yl)-9-methyl-7-(piperazin-1-yl)-4H-pyrido[1,2-a]pyrimidin-4-one] came in with an IC50 of 3000 to 33000 nM.

As for `Cc1cc(C2CCNCC2)cn2c(=O)cc(-c3ccc4nn(C)cc4c3)nc12` [compound 721, 9-methyl-2-(2-methyl-2H-indazol-5-yl)-7-(piperidin-4-yl)-4H-pyrido[1,2-a]pyrimidin-4-one], the IC50 lay in the range of 500 to 1000 nM.

Molecule `CCCc1nc(C)cn2nc(-c3cc(=O)n4cc(N5CCNCC5)ccc4n3)cc12` [compound 723, 2-(6-methyl-4-propylpyrazolo[1,5-a]pyrazin-2-yl)-7-(piperazin-1-yl)-4H-pyrido[1,2-a]pyrimidin-4-one] showed an IC50 of 3000 to 33000 nM.

On to `CCCc1nc(C)cn2nc(-c3cc(=O)n4cc(N5CCN[C@H](C)C5)ccc4n3)cc12` [compound 727, 7-[(3R)-3-methylpiperazin-1-yl]-2-(6-methyl-4-propylpyrazolo[1,5-a]pyrazin-2-yl)-4H-pyrido[1,2-a]pyrimidin-4-one], for which the IC50 lay in the range of 3000 to 33000 nM.

Molecule `Cc1cn2cc(-c3cc(=O)n4cc(N5CCNCC5)ccc4n3)cc(C(F)(F)F)c2n1` [compound 733, 2-[2-methyl-8-(trifluoromethyl)imidazo[1,2-a]pyridin-6-yl]-7-(piperazin-1-yl)-4H-pyrido[1,2-a]pyrimidin-4-one] yielded an IC50 of 1000 to 3000 nM.
